Measured values published in patent US20250332266A1, “COMPOUNDS FOR THE DEGRADATION OF EGFR KINASE” (BeiGene Switzerland GmbH, priority 2022, published 2025).

Tests used:
[1] = biological target: EGFR Del19/T790M/C797S (H1975-clone #28) (Homo sapiens, UniProt P00533, T790M/C797S, form not given); assay: EGFR degradation, HTRF total-EGFR assay, H1975-clone #28 (DTC); format: cell-based; details: H1975-clone #28 Del19/T790M/C797S, 16 h treatment
Outline: (§1)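 H1975 clones with endogenous EGFR knocked out and homozygous exogenous EGFR mutants (#28 Del19/T790M/C797S; #25 L858R/T790M/C797S) treated 16 h at 37 °C, 8 doses, 5-fold from 10 μM, 0.2% DMSO. Total EGFR measured by HTRF on lysates, normalised to DMSO controls; DC50 and Dmax from curve fit.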

[2] = biological target: T1, EGFR L858R/T790M/C797S (H1975-clone #25) (Homo sapiens, UniProt P00533, C797S/L858R/T790M); assay: EGFR degradation, HTRF total-EGFR assay, H1975-clone #25 (LTC); format: cell-based; details: H1975-clone #25 L858R/T790M/C797S, 16 h treatment
T1 construct: expressed in transfected cells; host or cells: H1975 (clone #25), lentiviral transduction, endogenous EGFR knocked out
Outline: as §1

T1 sequence (P00533 25-1210 T790M/C797S/L858R): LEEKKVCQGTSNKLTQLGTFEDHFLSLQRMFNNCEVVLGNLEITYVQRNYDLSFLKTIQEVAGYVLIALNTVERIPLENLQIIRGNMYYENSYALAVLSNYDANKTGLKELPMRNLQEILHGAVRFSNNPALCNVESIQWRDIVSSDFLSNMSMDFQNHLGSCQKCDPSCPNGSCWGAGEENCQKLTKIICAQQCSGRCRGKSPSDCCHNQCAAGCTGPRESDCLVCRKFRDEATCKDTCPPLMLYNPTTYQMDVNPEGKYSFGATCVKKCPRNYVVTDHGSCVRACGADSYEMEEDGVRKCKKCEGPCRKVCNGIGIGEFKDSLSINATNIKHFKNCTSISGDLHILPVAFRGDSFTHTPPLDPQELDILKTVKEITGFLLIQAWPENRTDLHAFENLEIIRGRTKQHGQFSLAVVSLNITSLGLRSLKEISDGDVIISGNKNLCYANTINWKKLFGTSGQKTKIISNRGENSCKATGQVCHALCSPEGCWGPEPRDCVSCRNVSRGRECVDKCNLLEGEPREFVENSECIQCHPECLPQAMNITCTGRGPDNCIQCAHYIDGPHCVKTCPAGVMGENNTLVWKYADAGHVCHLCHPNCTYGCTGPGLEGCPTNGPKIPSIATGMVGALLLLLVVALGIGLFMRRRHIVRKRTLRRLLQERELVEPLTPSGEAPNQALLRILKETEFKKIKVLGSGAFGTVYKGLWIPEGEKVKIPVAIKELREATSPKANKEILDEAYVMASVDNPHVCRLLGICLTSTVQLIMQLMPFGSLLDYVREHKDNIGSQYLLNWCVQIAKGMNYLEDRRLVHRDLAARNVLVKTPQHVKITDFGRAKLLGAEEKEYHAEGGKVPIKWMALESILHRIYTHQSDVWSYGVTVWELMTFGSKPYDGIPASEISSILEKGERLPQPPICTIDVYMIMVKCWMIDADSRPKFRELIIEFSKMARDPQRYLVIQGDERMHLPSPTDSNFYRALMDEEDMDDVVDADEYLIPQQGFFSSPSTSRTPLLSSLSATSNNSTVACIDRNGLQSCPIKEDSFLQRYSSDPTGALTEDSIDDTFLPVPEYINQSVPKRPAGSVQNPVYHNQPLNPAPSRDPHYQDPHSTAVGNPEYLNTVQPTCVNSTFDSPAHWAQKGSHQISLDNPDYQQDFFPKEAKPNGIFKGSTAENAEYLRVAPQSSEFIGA
EGFR Del19/T790M/C797S (H1975-clone #28), sequence (P00533 with tags, fused parts or gaps DEL746-750/T790M/C797S, form open): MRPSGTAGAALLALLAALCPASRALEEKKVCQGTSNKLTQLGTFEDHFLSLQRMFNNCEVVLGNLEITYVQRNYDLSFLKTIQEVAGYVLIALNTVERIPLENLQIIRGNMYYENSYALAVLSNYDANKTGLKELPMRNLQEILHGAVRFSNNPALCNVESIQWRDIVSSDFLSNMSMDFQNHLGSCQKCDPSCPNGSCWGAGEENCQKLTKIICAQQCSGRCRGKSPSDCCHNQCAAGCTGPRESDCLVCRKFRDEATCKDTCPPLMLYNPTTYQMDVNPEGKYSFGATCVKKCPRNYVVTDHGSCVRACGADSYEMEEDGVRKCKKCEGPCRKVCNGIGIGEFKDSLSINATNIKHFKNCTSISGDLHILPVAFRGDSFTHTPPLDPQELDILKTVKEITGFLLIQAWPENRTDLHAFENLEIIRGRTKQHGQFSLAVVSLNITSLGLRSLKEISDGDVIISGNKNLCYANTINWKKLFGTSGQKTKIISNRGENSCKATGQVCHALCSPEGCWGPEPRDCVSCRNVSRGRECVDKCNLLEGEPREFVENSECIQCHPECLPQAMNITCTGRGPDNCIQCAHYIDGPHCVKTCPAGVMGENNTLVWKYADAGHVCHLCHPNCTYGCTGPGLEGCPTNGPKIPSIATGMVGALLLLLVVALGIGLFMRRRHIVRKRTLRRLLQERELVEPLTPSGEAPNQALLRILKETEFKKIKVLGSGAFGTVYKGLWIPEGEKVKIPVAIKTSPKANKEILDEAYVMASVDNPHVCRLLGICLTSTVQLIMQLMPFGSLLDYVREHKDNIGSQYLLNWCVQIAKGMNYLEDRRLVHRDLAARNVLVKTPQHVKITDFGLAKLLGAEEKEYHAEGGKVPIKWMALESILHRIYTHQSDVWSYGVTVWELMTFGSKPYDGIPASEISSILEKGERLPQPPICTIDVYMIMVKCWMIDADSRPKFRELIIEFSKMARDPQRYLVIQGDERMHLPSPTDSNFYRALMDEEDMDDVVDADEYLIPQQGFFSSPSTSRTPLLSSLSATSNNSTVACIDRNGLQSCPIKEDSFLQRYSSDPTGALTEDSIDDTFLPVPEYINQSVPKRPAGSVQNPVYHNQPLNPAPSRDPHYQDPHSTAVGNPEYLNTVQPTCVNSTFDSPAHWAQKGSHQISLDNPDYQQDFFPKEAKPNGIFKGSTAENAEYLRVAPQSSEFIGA

| Degradation H1975 # 28 DTC [1] | Degradation H1975 # 25-LTC [2] | Structure (SMILES) |
| --- | --- | --- |
| 75.2 | 85.2 | Cc1cc2cc(n1)-c1cnn(C)c1OC[C@H]1C[C@@H](CN3/C(=N/C2=O)Nc2ccc(N(C)C4CC5(C4)CN(C4CCN(c6ccc(C7CCC(=O)NC7=O)nc6C)CC4)C5)cc23)C1 (some centres unmarked) [Example 112, 3-(5-(4-(6-(((7^1s,7^3s,E)-1^1,2^6-dimethyl-3-oxo-5^2,5^3-dihydro-1^1′H,5^1H-9-oxa-4-aza-5(2,1)-benzo[d]imidazola-2(2,4)-pyridina-1(4,5)-pyrazola-7(1,3)-cyclobutanacyclononaphane-5^6-yl)(methyl)amino)-2-azaspiro[3.3]heptan-2-yl)piperidin-1-yl)-6-methylpyridin-2-yl)piperidine-2,6-dione] |
| 75.7 | 78.4 | Cc1cc2cc(n1)-c1cnn(C)c1OC[C@H]1C[C@@H](CN3/C(=N/C2=O)Nc2ccc(N4CC5(C4)CN(C4CCN(c6ccc(C7CCC(=O)NC7=O)nc6C)CC4)C5)cc23)C1 (some centres unmarked) [Example 113, 3-(5-(4-(6-((7^1s,7^3s,E)-1^1,2^6-dimethyl-3-oxo-5^2,5^3-dihydro-1^1H,5^1H-9-oxa-4-aza-5(2,1)-benzo[d]imidazola-2(2,4)-pyridina-1(4,5)-pyrazola-7(1,3)-cyclobutanacyclononaphane-5^6-yl)-2,6-diazaspiro[3.3]heptan-2-yl)piperidin-1-yl)-6-methylpyridin-2-yl)piperidine-2,6-dione] |
| 79.0 | 86.8 | Cc1cc2cc(n1)-c1cnn(C)c1OC[C@H]1C[C@@H](CN3/C(=N/C2=O)Nc2ccc(N(C)CC4CN(C5CCN(c6ccc(C7CCC(=O)NC7=O)nc6C)CC5)C4)cc23)C1 (some centres unmarked) [Example 114, 3-(5-(4-(3-((((7^1s,7^3s,E)-1^1,2^6-dimethyl-3-oxo-5^2,5^3-dihydro-1′H,5^1H-9-oxa-4-aza-5(2,1)-benzo[d]imidazola-2(2,4)-pyridina-1(4,5)-pyrazola-7(1,3)-cyclobutanacyclononaphane-5^6-yl)(methyl)amino)methyl)azetidin-1-yl)piperidin-1-yl)-6-methylpyridin-2-yl)piperidine-2,6-dione] |
| 78.2 | 90.6 | Cc1cc2cc(n1)-c1cnn(C)c1OC[C@H]1C[C@@H](CN3/C(=N/C2=O)Nc2ccc(N4C[C@@H]5C[C@H]4CN5C4CCN(c5ccc(C6CCC(=O)NC6=O)nc5C)CC4)cc23)C1 (stereo partly drawn) [Example 117, 3-(5-(4-((1S,4S)-5-((7^1s,7^3R,E)-1^1,2^6-dimethyl-3-oxo-5^2,5^3-dihydro-1^1H,5^1H-9-oxa-4-aza-5(2,1)-benzo[d]imidazola-2(2,4)-pyridina-1(4,5)-pyrazola-7(1,3)-cyclobutanacyclononaphane-5^6-yl)-2,5-diazabicyclo[2,2,1]heptan-2-yl)piperidin-1-yl)-6-methylpyridin-2-yl)piperidine-2,6-dione] |
| 82.4 | 83.1 | COC[C@@H]1CN(c2ccc3c(c2)N2C[C@H]4C[C@@H](COc5c(cnn5C)-c5cc(cc(C)n5)C(=O)/N=C/2N3)C4)CCN1C1CCN(c2cnc(C3CCC(=O)NC3=O)cc2C)CC1 (stereo partly drawn) [Example 120, 3-(5-(4-((S)-4-((7^1s,7^3R,E)-1^1,2^6-dimethyl-3-oxo-5^2,5^3-dihydro-1^1H,5^1H-9-oxa-4-aza-5(2,1)-benzo[d]imidazola-2(2,4)-pyridina-1(4,5)-pyrazola-7(1,3)-cyclobutanacyclononaphane-5^6-yl)-2-(methoxymethyl)piperazin-1-yl)piperidin-1-yl)-4-methylpyridin-2-yl)piperidine-2,6-dione] |
| 83.2 | 89.5 | Cc1cc2cc(n1)-c1cnn(C)c1OC[C@H]1C[C@@H](CN3/C(=N/C2=O)Nc2ccc(N4CCN(C5CN(C6CCN(c7ccc(C8CCC(=O)NC8=O)nc7C)CC6)C5)CC4)cc23)C1 (some centres unmarked) [Example 121, 3-(5-(4-(3-(4-((7^1s,7^3s,E)-1^1,2^6-dimethyl-3-oxo-5^2,5^3-dihydro-1^1H,5^1H-9-oxa-4-aza-5(2,1)-benzo[d]imidazola-2(2,4)-pyridina-1(4,5)-pyrazola-7(1,3)-cyclobutanacyclononaphane-5^6-yl)piperazin-1-yl)azetidin-1-yl)piperidin-1-yl)-6-methylpyridin-2-yl)piperidine-2,6-dione] |
| 84.1 | 90.9 | Cc1cc2cc(n1)-c1cnn(C)c1OC[C@H]1C[C@@H](CN3/C(=N/C2=O)Nc2ccc(N4CC[C@H](N5CCN(c6ccc(C7CCC(=O)NC7=O)nc6C)CC5)C(F)(F)C4)cc23)C1 (stereo partly drawn) [Example 122, 3-(5-(4-((S)-1-((7^1s,7^3R,E)-1^1,2^6-dimethyl-3-oxo-5^2,5^3-dihydro-1^1H,5^1H-9-oxa-4-aza-5(2,1)-benzo[d]imidazola-2(2,4)-pyridina-1(4,5)-pyrazola-7(1,3)-cyclobutanacyclononaphane-5^6-yl)-3,3-difluoropiperidin-4-yl)piperazin-1-yl)-6-methylpyridin-2-yl)piperidine-2,6-dione] |
| 85.6 | 92.1 | Cc1cc2cc(n1)-c1cnn(C)c1OC[C@H]1C[C@@H](CN3/C(=N/C2=O)Nc2ccc(N4CCN([C@@H]5CCN(c6ccc(C7CCC(=O)NC7=O)nc6C)CC5(F)F)CC4)cc23)C1 (stereo partly drawn) [Example 123, 3-(5-((R)-4-(4-((7^1s,7^3S,E)-1^1,2^6-dimethyl-3-oxo-5^2,5^3-dihydro-1^1H,5^1H-9-oxa-4-aza-5(2,1)-benzo[d]imidazola-2(2,4)-pyridina-1(4,5)-pyrazola-7(1,3)-cyclobutanacyclononaphane-5^6-yl)piperazin-1-yl)-3,3-difluoropiperidin-1-yl)-6-methylpyridin-2-yl)piperidine-2,6-dione] |
| 82.6 | 87.5 | Cc1cc2cc(n1)-c1cnn(C)c1OC[C@H]1C[C@@H](CN3/C(=N/C2=O)Nc2ccc(N4CCN(C5CCN(c6ccc(C7CCC(=O)NC7=O)nc6C)CC5)CC45COC5)cc23)C1 (some centres unmarked) [Example 124, 3-(5-(4-(5-((7^1s,7^3S,E)-1^1,2^6-dimethyl-3-oxo-5^2,5^3-dihydro-1^1H,5^1H-9-oxa-4-aza-5(2,1)-benzo[d]imidazola-2(2,4)-pyridina-1(4,5)-pyrazola-7(1,3)-cyclobutanacyclononaphane-5^6-yl)-2-oxa-5,8-diazaspiro[3.5]nonan-8-yl)piperidin-1-yl)-6-methylpyridin-2-yl)piperidine-2,6-dione] |
| 89.9 | 86.8 | Cc1cc2cc(n1)-c1cnn(C)c1OC[C@H]1C[C@@H](CN3/C(=N/C2=O)Nc2ccc(N4CCN([C@H]5CCN(c6ccc(C7CCC(=O)NC7=O)nc6C)CC5(F)F)CC4)cc23)C1 (stereo partly drawn) [Example 125, 3-(5-((S)-4-(4-((7^1s,7^3R,E)-1^1,2^6-dimethyl-3-oxo-5^2,5^3-dihydro-1^1H,5^1H-9-oxa-4-aza-5(2,1)-benzo[d]imidazola-2(2,4)-pyridina-1(4,5)-pyrazola-7(1,3)-cyclobutanacyclononaphane-5^6-yl)piperazin-1-yl)-3,3-difluoropiperidin-1-yl)-6-methylpyridin-2-yl)piperidine-2,6-dione] |
| 80.5 | 85.9 | Cc1cc2cc(n1)-c1cnn(C)c1OC[C@H]1C[C@@H](CN3/C(=N/C2=O)Nc2ccc(N4CC5CCC4CN5C4CCN(c5ccc(C6CCC(=O)NC6=O)nc5C)CC4)cc23)C1 (some centres unmarked) [Example 126, 3-(5-(4-(5-((7^1s,7^3s,E)-1^1,2^6-dimethyl-3-oxo-5^2,5^3-dihydro-1^1H,5^1H-9-oxa-4-aza-5(2,1)-benzo[d]imidazola-2(2,4)-pyridina-1(4,5)-pyrazola-7(1,3)-cyclobutanacyclononaphane-5^6-yl)-2,5-diazabicyclo[2.2.2]octan-2-yl)piperidin-1-yl)-6-methylpyridin-2-yl)piperidine-2,6-dione] |

| Structure (SMILES) | Degradation H1975 # 28 DTC [1] | Degradation H1975 # 25-LTC [2] |
| --- | --- | --- |
| Cc1cc2cc(n1)-c1cnn(C)c1OC[C@H]1C[C@@H](CN3/C(=N/C2=O)Nc2ccc(N4C5CCC4CN(C4CCN(c6ccc(C7CCC(=O)NC7=O)nc6C)CC4)C5)cc23)C1 (some centres unmarked) [Example 127, 3-(5-(4-(8-((7^1s,7^3s,E)-1^1,2^6-dimethyl-3-oxo-5^2,5^3-dihydro-1^1H,5^1H-9-oxa-4-aza-5(2,1)-benzo[d]imidazola-2(2,4)-pyridina-1(4,5)-pyrazola-7(1,3)-cyclobutanacyclononaphane-5^6-yl)-3,8-diazabicyclo[3.2.1]octan-3-yl)piperidin-1-yl)-6-methylpyridin-2-yl)piperidine-2,6-dione] | 85.5 | 96.0 |
| Cc1cc2cc(n1)-c1cnn(C)c1OC[C@H]1C[C@@H](CN3/C(=N/C2=O)Nc2ccc(N4C5CCC4CN(C4CCN(c6cc(F)c([C@H]7CCC(=O)NC7=O)c(F)c6)CC4)C5)cc23)C1 [Example 128, (3R)-3-(4-(4-(8-((7^1s,7^3s,E)-1^1,2^6-dimethyl-3-oxo-5^2,5^3-dihydro-1^1H,5^1H-9-oxa-4-aza-5(2,1)-benzo[d]imidazola-2(2,4)-pyridina-1(4,5)-pyrazola-7(1,3)-cyclobutanacyclononaphane-5^6-yl)-3,8-diazabicyclo[3.2.1]octan-3-yl)piperidin-1-yl)-2,6-difluorophenyl)piperidine-2,6-dione] | 75.7 | 73.7 |
